{
  "source": "patent US20150105252A1",
  "about": "“SUBSTITUTED PYRAZOLES AS HERBICIDES” (E I DU PONT DE NEMOURS AND COMPANY, priority 2013, published 2015)",
  "key": {"[1]": {"tested_on": "ducksalad", "assay": "Test C flooded paddy test", "assay_type": "in vivo, Heteranthera limosa", "conditions": "Flood", "how_it_was_run": "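Test compounds are applied straight into paddy water held 3 cm above the soil surface, with that flood maintained for the whole test. After 13 to 15 days in the greenhouse, each species is scored visually relative to controls.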"}, "[2]": {"tested_on": "bermudagrass", "assay": "Test E preemergence", "assay_type": "in vivo, Cynodon dactylon", "conditions": "21 days, scale 0 to 100", "excerpt": "(§1) Seeds of plant species selected from bermudagrass (Cynodon dactylon), Surinam grass (Brachiaria decumbens), crabgrass, large (large crabgrass, Digitaria sanguinalis), crabgrass, naked (naked crabgrass, Digitaria nuda), foxtail, green (green foxtail, Setaria viridis), johnsongrass (Sorghum halepense), kochia (Kochia scoparia), morningglory (pitted morningglory, Ipomoea lacunosa), nutsedge, purple (purple nutsedge, Cyperus rotundus), ragweed (common ragweed, Ambrosia elation), mustard, black (black mustard, Brassica nigra), guineagrass (Panicum maximum), dallisgrass (Paspalum dilatatum), barnyardgrass (Echinochloa crus-galli), sandbur (southern sandbur, Cenchrus echinatus), sowthistle (common sowthistle, Sonchus oleraceous), ryegrass, Italian (Italian ryegrass, Lolium multiflorum), signalgrass (broadleaf signalgrass, Brachiaria platyphylla), dayflower, VA (Virginia (VA) dayflower, Commelina virginica), bluegrass (annual bluegrass, Poa annua), quackgrass (Elytrigia repens), mallow (common mallow, Malva sylvestris), buckwheat, wild (wild buckwheat, Polygonum convolvulus), leafy spurge (Euphorbia esula), common chickweed (Stellaria media), wild poinsettia (Euphorbia heterophylla), pigweed, palmer (palmer pigweed, Amaranthus palmeri), and pigweed (redroot pigweed, Amaranthus retroflexus) were planted into a blend of loam soil and sand and treated preemergence with test chemicals formulated in a non-phytotoxic solvent mixture which included a surfactant.\n(§2) Treated plants and controls were maintained in a greenhouse for 21 days, after which time all species were compared to controls and visually evaluated. Plant response ratings, summarized in Table E, are based on a scale of 0 to 100 where 0 is no effect and 100 is complete control. A dash (-) response means no test result."}, "[3]": {"tested_on": "foxtail, green", "assay": "Test E preemergence", "assay_type": "in vivo, Setaria viridis", "conditions": "21 days, scale 0 to 100", "excerpt": "as §1, §2"}, "[4]": {"tested_on": "kochia", "assay": "Test E preemergence", "assay_type": "in vivo, Kochia scoparia", "conditions": "21 days, scale 0 to 100", "excerpt": "as §1, §2"}, "[5]": {"tested_on": "barnyardgrass", "assay": "Test E preemergence", "assay_type": "in vivo, Echinochloa crus-galli", "conditions": "21 days, scale 0 to 100", "excerpt": "as §1, §2"}, "[6]": {"tested_on": "mallow", "assay": "Test E preemergence", "assay_type": "in vivo, Malva sylvestris", "conditions": "21 days, scale 0 to 100", "excerpt": "as §1, §2"}, "[7]": {"tested_on": "common ragweed", "assay": "Test A preemergence", "assay_type": "in vivo, Ambrosia elation", "how_it_was_run": "(§3)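 Growth medium: loam soil blended with sand. Preemergence treatment used a directed soil spray right after planting; postemergence treatment targeted seedlings at one to two leaves (2–10 cm height). Response was judged by eye relative to untreated plants about 10 days later on a 0–100 control scale.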"}, "[8]": {"tested_on": "common ragweed", "assay": "Test A postemergence", "assay_type": "in vivo, Ambrosia elation", "how_it_was_run": "as §3"}, "[9]": {"tested_on": "galium", "assay": "Test A postemergence", "assay_type": "in vivo, Galium aparine", "conditions": "Postemergence", "how_it_was_run": "as §3"}, "[10]": {"conditions": "31 g ai/ha, scale 0 to 100 (0 no effect, 100 complete control)"}, "[11]": {"conditions": "62 g ai/ha, scale 0 to 100 (0 no effect, 100 complete control)"}, "[12]": {"conditions": "125 g ai/ha, scale 0 to 100 (0 no effect, 100 complete control)"}},
  "data": [
    {"smiles": "CCCNC(=O)c1cc(CCCl)n(Cc2ccnc(C(F)(F)F)c2)n1", "note": "[Compound 145]", "values": [
      {"measurement": "Plant response rating, Ducksalad", "setting": "[1]; [10]", "result": 100},
      {"measurement": "Plant response rating, Ducksalad", "setting": "[1]; [11]", "result": 100},
      {"measurement": "Plant response rating, Ducksalad", "setting": "[1]; 125 g ai/ha, scale 0 to 100", "result": 100},
      {"measurement": "Plant response rating, Ducksalad", "setting": "[1]; 250 g ai/ha, scale 0 to 100", "result": 100}
    ]},
    {"smiles": "CCOc1cc(C(=O)NC2CC2)nn1Cc1ccnc(C(F)(F)F)c1", "note": "[Compound 189]", "values": [
      {"measurement": "Plant response rating, Bermudagrass", "setting": "[2]; 4 g ai/ha", "result": 0},
      {"measurement": "Plant response rating, Bermudagrass", "setting": "[2]; 8 g ai/ha", "result": 0},
      {"measurement": "Plant response rating, Bermudagrass", "setting": "[2]; 16 g ai/ha", "result": 65},
      {"measurement": "Plant response rating, Bermudagrass", "setting": "[2]; 31 g ai/ha", "result": 85},
      {"measurement": "Plant response rating, Bermudagrass", "setting": "[2]; 62 g ai/ha", "result": 98},
      {"measurement": "Plant response rating, Foxtail, Green", "setting": "[3]; 4 g ai/ha", "result": 0},
      {"measurement": "Plant response rating, Foxtail, Green", "setting": "[3]; 8 g ai/ha", "result": 20},
      {"measurement": "Plant response rating, Foxtail, Green", "setting": "[3]; 16 g ai/ha", "result": 100},
      {"measurement": "Plant response rating, Foxtail, Green", "setting": "[3]; 31 g ai/ha", "result": 100},
      {"measurement": "Plant response rating, Foxtail, Green", "setting": "[3]; 62 g ai/ha", "result": 100},
      {"measurement": "Plant response rating, Kochia", "setting": "[4]; 4 g ai/ha", "result": 98},
      {"measurement": "Plant response rating, Kochia", "setting": "[4]; 8 g ai/ha", "result": 100},
      {"measurement": "Plant response rating, Kochia", "setting": "[4]; 16 g ai/ha", "result": 100},
      {"measurement": "Plant response rating, Kochia", "setting": "[4]; 31 g ai/ha", "result": 100},
      {"measurement": "Plant response rating, Kochia", "setting": "[4]; 62 g ai/ha", "result": 100},
      {"measurement": "Plant response rating, Barnyardgrass", "setting": "[5]; 4 g ai/ha", "result": 0},
      {"measurement": "Plant response rating, Barnyardgrass", "setting": "[5]; 8 g ai/ha", "result": 0},
      {"measurement": "Plant response rating, Barnyardgrass", "setting": "[5]; 16 g ai/ha", "result": 35},
      {"measurement": "Plant response rating, Barnyardgrass", "setting": "[5]; 31 g ai/ha", "result": 100},
      {"measurement": "Plant response rating, Barnyardgrass", "setting": "[5]; 62 g ai/ha", "result": 100},
      {"measurement": "Plant response rating, Mallow", "setting": "[6]; 4 g ai/ha", "result": 90},
      {"measurement": "Plant response rating, Mallow", "setting": "[6]; 8 g ai/ha", "result": 65},
      {"measurement": "Plant response rating, Mallow", "setting": "[6]; 16 g ai/ha", "result": 100},
      {"measurement": "Plant response rating, Mallow", "setting": "[6]; 31 g ai/ha", "result": 98},
      {"measurement": "Plant response rating, Mallow", "setting": "[6]; 62 g ai/ha", "result": 100}
    ]},
    {"smiles": "CCONC(=O)c1cc(OCC)n(Cc2ccnc(C(F)(F)F)c2)n1", "note": "[Compound 195]", "values": [
      {"measurement": "Plant response rating, Ducksalad", "setting": "[1]; [10]", "result": 0},
      {"measurement": "Plant response rating, Ducksalad", "setting": "[1]; [11]", "result": 20},
      {"measurement": "Plant response rating, Ducksalad", "setting": "[1]; [12]", "result": 85},
      {"measurement": "Plant response rating, Ducksalad", "setting": "[1]; 250 g ai/ha, scale 0 to 100", "result": 85}
    ]},
    {"smiles": "CCc1cc(C(=O)NC2CC2)nn1Cc1ccnc(OCC(F)(F)F)c1", "note": "[Compound 200]", "values": [
      {"measurement": "Plant response rating, Ducksalad", "setting": "[1]; [10]", "result": 30},
      {"measurement": "Plant response rating, Ducksalad", "setting": "[1]; [11]", "result": 30},
      {"measurement": "Plant response rating, Ducksalad", "setting": "[1]; [12]", "result": 100},
      {"measurement": "Plant response rating, Ducksalad", "setting": "[1]; 250 g ai/ha, scale 0 to 100", "result": 100}
    ]},
    {"smiles": "CCc1cc(C(=O)NCC(F)(F)F)nn1Cc1cc(OC(F)F)nn1C", "note": "[Compound 206]", "values": [
      {"measurement": "Common Ragweed plant response rating (0 to 100 scale)", "setting": "[7]; 125 g ai/ha, visual injury approx. 10 days after treatment", "result": 0},
      {"measurement": "Common Ragweed plant response rating", "setting": "[7]; 500 g ai/ha, visual injury after approx. 10 days, 0 to 100 scale (0 no effect, 100 complete control)", "result": 40},
      {"measurement": "Common Ragweed plant response rating", "setting": "[8]; Postemergence, 500 g ai/ha, 0 to 100 scale (0 no effect, 100 complete control)", "result": 30},
      {"measurement": "Common Ragweed plant response rating", "setting": "[8]; postemergence, 125 g ai/ha, about 10 days, visual rating on 0 to 100 scale (0 no effect, 100 complete control)", "result": 0},
      {"measurement": "Galium plant response rating", "setting": "[9]; 125 g ai/ha, 0 to 100 scale, 0 no effect, 100 complete control", "result": 20},
      {"measurement": "Galium plant response rating", "setting": "[9]; 500 g ai/ha, 0 to 100 scale (0 no effect, 100 complete control)", "result": 80}
    ]},
    {"smiles": "CCc1cc(C(=O)NC2CC2)nn1Cc1cc(C(F)(F)C(F)(F)F)nn1C", "note": "[Compound 226]", "values": [
      {"measurement": "Plant response rating, Ducksalad", "setting": "[1]; [10]", "result": 30},
      {"measurement": "Plant response rating, Ducksalad", "setting": "[1]; [11]", "result": 60},
      {"measurement": "Plant response rating, Ducksalad", "setting": "[1]; [12]", "result": 75}
    ]}
  ]
}
